# Measurements taken from article PMC7827406, “Structure–Activity Relationship (SAR) Study of Spautin-1 to Entail the Discovery of Novel NEK4 Inhibitors” (International Journal of Molecular Sciences, 2021).
# Like-named read-outs stand apart in the source and are kept apart here.
# How the values were obtained:
# Experiment in all cases: biochemical
# Parameters in all cases: Eurofins KinaseProfiler full panel at Km ATP, residual kinase activity (%) relative to DMSO
# ICK(h) = biological target: T1, ICK(h) (Homo sapiens, UniProt Q9UPZ9)
# T1 construct: gene CILK1
# T1 sequence (Q9UPZ9 1-632): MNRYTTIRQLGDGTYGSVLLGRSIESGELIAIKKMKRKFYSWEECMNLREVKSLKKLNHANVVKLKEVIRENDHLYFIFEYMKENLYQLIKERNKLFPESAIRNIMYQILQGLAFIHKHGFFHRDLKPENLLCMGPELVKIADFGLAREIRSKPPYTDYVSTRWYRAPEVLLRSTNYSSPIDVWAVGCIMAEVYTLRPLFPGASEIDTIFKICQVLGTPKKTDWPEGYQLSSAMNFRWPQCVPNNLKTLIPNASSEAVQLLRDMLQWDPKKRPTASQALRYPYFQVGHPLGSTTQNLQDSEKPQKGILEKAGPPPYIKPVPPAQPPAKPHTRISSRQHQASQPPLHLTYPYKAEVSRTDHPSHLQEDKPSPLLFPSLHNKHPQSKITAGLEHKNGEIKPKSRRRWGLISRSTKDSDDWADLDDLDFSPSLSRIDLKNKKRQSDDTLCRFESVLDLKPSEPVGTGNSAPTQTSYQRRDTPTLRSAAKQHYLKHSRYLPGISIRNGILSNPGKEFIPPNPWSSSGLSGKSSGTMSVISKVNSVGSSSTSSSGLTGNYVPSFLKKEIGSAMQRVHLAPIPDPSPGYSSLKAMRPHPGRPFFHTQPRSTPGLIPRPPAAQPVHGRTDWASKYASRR
# Outline: (§1)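 Two 10 µM single-concentration screens were run: a competition-binding screen, in which DNA-tagged kinase bound to immobilized ligands was quantified by qPCR, and a radiometric activity panel at Km ATP. Each is expressed as residual kinase activity (%).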
# DAPK2(h) = DAPK2(h) (Homo sapiens, UniProt Q9UIK4)
# Sequence of DAPK2(h) (Q9UIK4 whole entry): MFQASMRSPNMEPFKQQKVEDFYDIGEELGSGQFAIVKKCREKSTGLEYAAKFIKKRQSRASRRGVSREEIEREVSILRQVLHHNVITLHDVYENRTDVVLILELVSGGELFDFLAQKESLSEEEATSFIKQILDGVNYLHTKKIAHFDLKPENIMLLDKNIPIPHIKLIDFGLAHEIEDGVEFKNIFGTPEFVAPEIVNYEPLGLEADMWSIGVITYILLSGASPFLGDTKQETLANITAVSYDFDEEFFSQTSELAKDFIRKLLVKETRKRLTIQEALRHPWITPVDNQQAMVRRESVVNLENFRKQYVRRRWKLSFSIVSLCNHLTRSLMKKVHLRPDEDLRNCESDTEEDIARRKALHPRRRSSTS
# Outline: as §1
# RIPK1(h) = biological target: T2, RIPK1(h) (Homo sapiens, UniProt Q13546)
# T2 sequence (Q13546 1-671): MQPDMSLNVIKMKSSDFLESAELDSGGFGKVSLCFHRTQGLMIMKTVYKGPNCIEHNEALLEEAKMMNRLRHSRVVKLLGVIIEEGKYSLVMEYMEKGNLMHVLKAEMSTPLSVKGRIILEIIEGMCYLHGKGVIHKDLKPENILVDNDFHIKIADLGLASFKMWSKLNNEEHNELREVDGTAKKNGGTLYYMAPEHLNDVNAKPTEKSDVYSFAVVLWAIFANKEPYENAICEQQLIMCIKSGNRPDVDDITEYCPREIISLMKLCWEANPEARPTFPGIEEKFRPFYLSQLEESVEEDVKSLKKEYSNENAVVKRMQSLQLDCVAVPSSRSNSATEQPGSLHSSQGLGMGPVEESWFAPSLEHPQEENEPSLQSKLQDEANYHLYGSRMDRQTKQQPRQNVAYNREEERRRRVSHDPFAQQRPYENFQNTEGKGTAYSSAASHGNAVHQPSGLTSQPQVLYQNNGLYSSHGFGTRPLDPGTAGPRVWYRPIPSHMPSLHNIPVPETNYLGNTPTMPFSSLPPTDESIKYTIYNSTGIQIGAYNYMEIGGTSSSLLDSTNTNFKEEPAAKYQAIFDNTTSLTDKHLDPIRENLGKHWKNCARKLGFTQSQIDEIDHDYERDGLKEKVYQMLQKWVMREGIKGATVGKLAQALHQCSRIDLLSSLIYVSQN
# Outline: as §1
# Rsk3(h) = biological target: T3, Rsk3(h) (Homo sapiens, UniProt Q15349)
# T3 construct: gene RPS6KA2
# T3 sequence (Q15349 whole entry): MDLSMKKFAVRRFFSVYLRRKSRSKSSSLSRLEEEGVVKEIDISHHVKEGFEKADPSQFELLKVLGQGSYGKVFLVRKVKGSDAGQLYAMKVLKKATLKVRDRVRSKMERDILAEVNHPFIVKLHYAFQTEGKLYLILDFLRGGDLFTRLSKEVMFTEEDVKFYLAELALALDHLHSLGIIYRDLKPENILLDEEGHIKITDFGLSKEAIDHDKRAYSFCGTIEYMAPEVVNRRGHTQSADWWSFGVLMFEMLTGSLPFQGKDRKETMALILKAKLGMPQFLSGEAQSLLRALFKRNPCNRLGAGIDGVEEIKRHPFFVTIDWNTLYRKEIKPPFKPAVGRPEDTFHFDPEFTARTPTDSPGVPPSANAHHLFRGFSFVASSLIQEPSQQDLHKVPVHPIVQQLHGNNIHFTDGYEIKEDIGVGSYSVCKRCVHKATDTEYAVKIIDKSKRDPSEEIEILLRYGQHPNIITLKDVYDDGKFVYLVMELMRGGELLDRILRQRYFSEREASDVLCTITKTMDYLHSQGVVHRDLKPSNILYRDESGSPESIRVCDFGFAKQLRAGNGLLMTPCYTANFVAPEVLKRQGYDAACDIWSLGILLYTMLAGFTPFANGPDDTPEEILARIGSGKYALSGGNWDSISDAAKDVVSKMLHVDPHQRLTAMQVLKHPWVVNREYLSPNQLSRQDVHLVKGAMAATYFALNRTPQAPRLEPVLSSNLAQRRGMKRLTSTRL
# Outline: as §1
# SIK2(h) = SIK2(h) (Homo sapiens, UniProt Q9H0K1)
# Sequence of SIK2(h) (Q9H0K1 whole entry): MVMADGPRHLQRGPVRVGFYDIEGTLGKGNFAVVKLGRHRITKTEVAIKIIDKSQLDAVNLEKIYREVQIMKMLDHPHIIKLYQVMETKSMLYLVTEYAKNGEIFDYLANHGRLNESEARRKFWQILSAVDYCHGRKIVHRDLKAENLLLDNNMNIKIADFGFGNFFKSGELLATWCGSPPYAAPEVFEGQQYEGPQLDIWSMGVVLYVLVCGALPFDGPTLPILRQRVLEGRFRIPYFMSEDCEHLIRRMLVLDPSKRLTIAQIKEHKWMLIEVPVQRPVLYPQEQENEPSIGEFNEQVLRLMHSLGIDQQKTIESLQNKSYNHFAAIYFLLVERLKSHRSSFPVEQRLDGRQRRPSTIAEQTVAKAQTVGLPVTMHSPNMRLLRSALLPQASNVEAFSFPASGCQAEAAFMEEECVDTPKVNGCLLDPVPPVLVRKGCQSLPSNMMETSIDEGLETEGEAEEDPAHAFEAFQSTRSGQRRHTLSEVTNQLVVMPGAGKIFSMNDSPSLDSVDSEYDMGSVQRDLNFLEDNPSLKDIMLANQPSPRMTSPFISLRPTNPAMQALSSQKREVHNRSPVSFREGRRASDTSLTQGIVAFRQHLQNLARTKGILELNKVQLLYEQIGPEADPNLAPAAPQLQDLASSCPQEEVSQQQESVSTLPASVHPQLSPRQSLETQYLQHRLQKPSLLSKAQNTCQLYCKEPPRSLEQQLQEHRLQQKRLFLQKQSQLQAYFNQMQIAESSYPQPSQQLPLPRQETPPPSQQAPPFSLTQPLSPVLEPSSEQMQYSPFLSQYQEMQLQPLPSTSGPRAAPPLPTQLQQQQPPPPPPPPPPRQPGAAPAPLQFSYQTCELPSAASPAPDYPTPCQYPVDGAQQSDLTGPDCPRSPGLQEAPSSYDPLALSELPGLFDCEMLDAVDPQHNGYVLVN
# Outline: as §1
# MAPKAP-K3(h) = biological target: T4, MAPKAP-K3(h) (Homo sapiens, UniProt Q16644)
# T4 construct: gene MAPKAPK3
# T4 sequence (Q16644 whole entry): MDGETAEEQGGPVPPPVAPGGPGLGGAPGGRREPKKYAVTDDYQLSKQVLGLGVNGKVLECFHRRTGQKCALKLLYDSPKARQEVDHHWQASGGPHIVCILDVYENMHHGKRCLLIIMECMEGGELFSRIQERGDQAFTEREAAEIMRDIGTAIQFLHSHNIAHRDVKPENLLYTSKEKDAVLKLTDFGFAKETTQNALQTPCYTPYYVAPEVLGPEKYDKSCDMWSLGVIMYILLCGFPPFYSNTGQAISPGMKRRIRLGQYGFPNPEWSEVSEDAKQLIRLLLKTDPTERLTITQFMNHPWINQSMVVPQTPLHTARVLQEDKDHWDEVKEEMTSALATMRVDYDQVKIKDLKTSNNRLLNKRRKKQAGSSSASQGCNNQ
# Outline: as §1
# STK39(h) = STK39(h) (Homo sapiens, UniProt Q9UEW8)
# Outline: as §1
# CHK2(h) = biological target: T5, CHK2(h) (Homo sapiens, UniProt O96017)
# T5 construct: gene CHEK2
# T5 sequence (O96017 whole entry): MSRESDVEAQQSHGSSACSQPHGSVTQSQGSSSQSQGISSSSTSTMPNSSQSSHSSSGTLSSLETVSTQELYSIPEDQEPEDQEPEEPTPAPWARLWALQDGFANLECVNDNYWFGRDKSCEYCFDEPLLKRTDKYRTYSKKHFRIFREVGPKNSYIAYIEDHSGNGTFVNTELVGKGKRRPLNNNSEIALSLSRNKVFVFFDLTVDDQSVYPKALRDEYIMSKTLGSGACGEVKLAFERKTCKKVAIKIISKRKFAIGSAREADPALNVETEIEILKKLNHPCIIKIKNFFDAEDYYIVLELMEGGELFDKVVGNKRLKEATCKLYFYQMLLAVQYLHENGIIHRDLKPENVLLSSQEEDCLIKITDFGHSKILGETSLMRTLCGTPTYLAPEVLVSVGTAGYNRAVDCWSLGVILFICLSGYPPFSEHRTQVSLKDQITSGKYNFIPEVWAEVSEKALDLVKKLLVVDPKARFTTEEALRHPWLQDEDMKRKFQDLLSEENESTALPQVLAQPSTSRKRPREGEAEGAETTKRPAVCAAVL
# Outline: as §1
# [1] = read-out: Residual activity (%) 5ay
# [2] = read-out: Residual activity (%) Spautin-1 5aa
# [3] = read-out: Residual activity (%) 5at
# [4] = read-out: Residual activity (%) 5as
compound,measurement,setting,value
"COc1ccc2ncnc(Nc3cccc(F)c3)c2c1 [5ay, N-(3-Fluorophenyl)-6-Methoxy-4-Quinazolinamine]",remaining activity at 10 µM,ICK(h); [1],92%
same,remaining activity at 10 µM,DAPK2(h); [1],91%
same,remaining activity at 10 µM,RIPK1(h); [1],78%
same,remaining activity at 10 µM,Rsk3(h); [1],87%
same,remaining activity at 10 µM,SIK2(h); [1],65%
same,remaining activity at 10 µM,MAPKAP-K3(h); [1],78%
same,remaining activity at 10 µM,STK39(h); [1],114%
same,remaining activity at 10 µM,CHK2(h); [1],67%
"Fc1ccc(CNc2ncnc3ccc(F)cc23)cc1 [5aa, 6-Fluoro-N-(4-fluorobenzyl)-4-Quinazolinamine]",remaining activity at 10 µM,ICK(h); [2],97%
same,remaining activity at 10 µM,DAPK2(h); [2],94%
same,remaining activity at 10 µM,RIPK1(h); [2],86%
same,remaining activity at 10 µM,Rsk3(h); [2],126%
same,remaining activity at 10 µM,SIK2(h); [2],91%
same,remaining activity at 10 µM,MAPKAP-K3(h); [2],95%
same,remaining activity at 10 µM,STK39(h); [2],75%
same,remaining activity at 10 µM,CHK2(h); [2],67%
"Fc1ccc2ncnc(NCCc3ccc(Cl)cc3)c2c1 [5at, N-[2-(4-Chlorophenyl)Ethyl]-6-Fluoro-4-Quinazolinamine]",remaining activity at 10 µM,ICK(h); [3],88%
same,remaining activity at 10 µM,DAPK2(h); [3],101%
same,remaining activity at 10 µM,RIPK1(h); [3],80%
same,remaining activity at 10 µM,Rsk3(h); [3],111%
same,remaining activity at 10 µM,SIK2(h); [3],84%
same,remaining activity at 10 µM,MAPKAP-K3(h); [3],83%
same,remaining activity at 10 µM,STK39(h); [3],91%
same,remaining activity at 10 µM,CHK2(h); [3],75%
"Fc1ccc(CCNc2ncnc3ccc(F)cc23)cc1 [5as, 6-Fluoro-N-[2-(4-Fluorophenyl)Ethyl]-4-Quinazolinamine]",remaining activity at 10 µM,ICK(h); [4],90%
same,remaining activity at 10 µM,DAPK2(h); [4],100%
same,remaining activity at 10 µM,RIPK1(h); [4],73%
same,remaining activity at 10 µM,Rsk3(h); [4],108%
same,remaining activity at 10 µM,SIK2(h); [4],97%
same,remaining activity at 10 µM,MAPKAP-K3(h); [4],66%
same,remaining activity at 10 µM,STK39(h); [4],100%
same,remaining activity at 10 µM,CHK2(h); [4],73%
